Data on one compound can be found in patent US20040043377A1, “Evaluation method for predicting pharmacokinetics of PM using PM liver cells of drug metabolozing enzyme cytochrome P450 having a genetic polymorphism” (Pfizer Inc, priority 2002, published 2004).

Where two headings read alike, the source gives them in different places.

The target in series [1] is CYP2D6 (Homo sapiens, UniProt P10635). The note with it: cited from earlier work.
For series [2], the system named is PM liver microsomes. Description: Metabolite formation in PM liver microsomes (Lot. No. HHM-0168). It is filed as in vitro ADME, human. On the procedure:
Incubation reactions from the determination of the enzymatic kinetic parameters were carried out at a protein concentration of 0.2 mg/ml in 100 mM potassium phosphate, pH 7.4 containing 1.3 mM NADP^+, 0.93 mM NADH, 3.3 mM glucose-6-phosphate, 8 units/ml G-6-PDH, 3.3 mM MgCl2, and substrates. Reactions were initiated by the addition of NADP^+/NADH, and then terminated after 10 min incubation at 37° C. by the addition of ten-fold volume of acetonitrile containing an LC/MS/MS internal standard (Levallorphan at 100 ng/ml final conc.). The mixtures were centrifuged for 10 min, and supernatants were used for LC/MS/MS analyses to determine the production rates of metabolites.
On the technique in general: Liver microsomes are vesicles of endoplasmic reticulum, rich in cytochrome P450 enzymes.

Series [3] deals with isolated PM liver cells of CYP2D6 (Lot 64). Description: Dextromethorphan metabolism in cryopreserved isolated PM liver cells of CYP2D6 (Lot 64). Type of series: in vitro ADME, human. On the procedure: (§1) A preliminary test for evaluation metabolic reactions was conducted by selecting dextromethorphan (DM, analgesic agent) as the substrate of CYP2D6. Metabolism of DM in the clinical setting is known to proceed by N-demethylation, O-demethylation followed by glucuronic acid conjugation. CYP3A4 catalyzes the N-demethylation reaction, while CYP2D6 catalyzes the O-demethylation reaction. In PM of […], N-demethylation is known to proceed as a compensatory metabolic pathway of O-demethylation. In the present embodiment, metabolic reactions were examined for dextromethorphan using isolated PM liver cells of CYP2D6, and a discussion was made as to whether or not the pharmacokinetics of PM can be predicted.
(§2) The cryopreserved isolated PM liver cells of PM of CYP2D6 that were used (Lot 64) and the cryopreserved isolated EM liver cells (Lot 70) were prepared at In Vitro Technologies (IVT), USA. Liver cells for which the activity of CYP3A4 was roughly equal to that of Lot 64 of the cryopreserved isolated PM liver cells were selected by referring to data provided by IVT for use as the cryopreserved isolated EM liver cells. The acquired cells consisted of 6×10^6 cells per vial for both lots.
(§3) Krebs Henseleit buffer (adjusted to pH 7.4 following addition of calcium chloride dihydrate (0.373 g/L), sodium bicarbonate (2.1 g/L) and HEPES (1.5 g/L)) was used for the incubation medium. The cryopreserved human isolated liver cells were inoculated into a 96-well plate and used for testing while suspended in culture liquid. Dextromethorphan (DM), which is the substrate of CYP2D6, was added to the wells at final concentrations of 0.08, 0.4, 2, 10 and 50 μM and allowed to react at 37° C. The reaction liquid was sampled after 1 and 2 hours, and the parent compound (DM) along with dextrorphan (DEX: metabolite mainly produced by CYP2D6) and 3-methoxymorphinan (3-MM: metabolite mainly produced by CYP3A4) were respectively assayed. In addition, with respect to assay of the conjugate (glucuronide), DEX obtained by hydrolysis following the addition of β-glucuronidase/allylsulfatase to the sampled reaction liquid was assayed, and the difference with DEX prior to hydrolysis was taken to be the amount of the conjugate. LC/MS/MS were used for analyzing the unchanged form and metabolites in the culture liquid.
Furthermore, LC/MS/MS were carried out under the measurement conditions described below. HPLC: Waters 2790, MS: API365 Sciex, column: YMC J′ sphere ODS L80 2×35 mm, gradient: mobile phase A [CH3CN:10 mM CH3CO2NH4 aqueous solution=10:90], mobile phase B [CH3CN:10 mM CH3CO2NH4 aqueous solution=80:20], conditions [mobile phase flow rate 0.35 ml/minute, composition of mobile phase changed from A:B=100:0 to A:B=0:100 1 minute after sample injection, followed by allowing composition of A:B=0:100 to flow for 1 minute], MS/MS detection: DM=272.3/170.9, DEX=258.2/157.1, 3-MM=258.2/215.0, MDZ=326.1/291.1, 4-OH MDZ=342.1/324.1.

For series [4], the system named is isolated EM liver cells (Lot 70). The series can be described thus: Dextromethorphan metabolism in cryopreserved isolated EM liver cells (Lot 70). It is filed as in vitro ADME, human. On the procedure: as §1, §2
as §3, with “In addition, with respect to assay of the conjugate (glucuronide), DEX obtained by hydrolysis following the addition of β-glucuronidase/allylsulfatase to the sampled reaction liquid was assayed, and the difference with DEX prior to hydrolysis was taken to be the amount of the conjugate. LC/MS/MS were used for analyzing the unchanged form and metabolites in the culture liquid.” left out

For series [5] the following is noted: clinical dose level (about 20 mg/body); cited from earlier work.

Chain of CYP2D6 (P10635 whole entry): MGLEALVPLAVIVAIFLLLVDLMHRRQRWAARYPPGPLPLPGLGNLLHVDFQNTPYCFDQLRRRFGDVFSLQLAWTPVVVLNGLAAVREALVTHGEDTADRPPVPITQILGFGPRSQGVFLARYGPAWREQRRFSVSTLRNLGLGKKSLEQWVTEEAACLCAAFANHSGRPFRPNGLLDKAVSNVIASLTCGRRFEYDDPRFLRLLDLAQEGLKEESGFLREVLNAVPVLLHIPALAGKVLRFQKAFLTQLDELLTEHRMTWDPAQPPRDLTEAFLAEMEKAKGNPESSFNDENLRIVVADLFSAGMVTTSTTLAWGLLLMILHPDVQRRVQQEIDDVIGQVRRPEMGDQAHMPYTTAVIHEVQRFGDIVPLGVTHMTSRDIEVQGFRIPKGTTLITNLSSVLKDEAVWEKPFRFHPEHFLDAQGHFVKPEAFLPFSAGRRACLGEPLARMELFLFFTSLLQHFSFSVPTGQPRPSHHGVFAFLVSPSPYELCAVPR

For `COc1ccc2c(c1)[C@]13CCCC[C@@H]1[C@H](C2)N(C)CC3` [DM, dextromethorphan], the Km in series [1] is roughly 2 µM. Further, in series [2] (FIG. 6), the “differences in 3-MM/1'OH-MDZ formation rate between PM and EM liver microsomes” value is given as “not statically significance”. In addition, the compensatory metabolic pathway result in series [2] (PM microsomes) is given as “did not proceed”. For the same compound, the DEX formation entry is “not detected” in series [3]; “formation of DEX was observed” in series [3] (PM liver cells, DM 10 μM and 50 μM); “only slight formation of DEX” in series [3] (PM, in the vicinity of concentration of DM in the blood (up to 1 μM)). In series [3] (CYP2D6 PM liver cells), the “3-MM formation rate versus EM liver cells” value is on record as “greater than that in EM liver cells”. Further, in series [3] (FIG. 5), the “differences in 3-MM/1'OH-MDZ formation rate between PM and EM liver cells (hepatocytes)” value is given as “large”. In addition, the “formation rate of 3-MM relative to DEX formation rate” value in series [3] (PM liver cells) was “comparable to the DEX formation rates”; in series [4] (EM liver cells) it was “less than one-tenth”. In addition, the “glucuronic acid conjugation reaction (DEX-glucuronide formation)” value in series [3] (isolated PM liver cells lot 64) and in series [4] (isolated EM liver cells lot 70) was “clearly determined to proceed” in each case. In addition, in series [4] (EM liver cells, DM 0.08-50 μM), the “formation rate of metabolite DEX” value is reported as “increased concentration-dependently”. In addition, the “concentration of DM in the blood” value in series [5] is recorded as “up to 1 μM”.

One may read the Km as the concentration of substrate that gives half-maximal velocity.
